Assay results reported in patent US11331327B2, “Antibacterial use of halogenated salicylanilides” (UNION therapeutics A/S, priority 2014, dated 2022).
In brackets after ≈: the same amount, converted by molar mass. Several values for one entry are separate records, joined by “and”; a condition that tells them apart may be missing. Equal entries are not always repeated. Where two headings read alike, the source gives them in different places.

How the values were obtained:
MRSA 01 [1] = test: Effect of pH on the antibacterial activity (MIC) of niclosamide; format: cell-based, Staphylococcus aureus; settings: for MIC: Staphylococcus aureus, MRSA
Procedure: This strain was conserved in Luria Bertani (LB) Broth supplemented with glycerol 15% (v/v) at −80° C., and reactivated by isolation on LB agar plates. It was then cultivated aerobically in Mueller Hinton (MH) Broth-cation adjusted at 37° C.
The pH of Mueller-Hinton Broth cation-adjusted was adjusted with HCl 2M to 7, 6.5, 6, 5.5, 5, 4.5 and […]. Ten ml of medium for each pH were prepared. pH of non-adjusted MHBII was equal to 7.4.
Each pH-adjusted samples were filtered on 0.2 μm filters before being used for the MIC determination assay.
Bacterial culture was stopped in its exponential growth phase and plates were inoculated with the approximate concentration of 5×10^5 cells per well. Plates were incubated at 37° C. for 18 hours (S. aureus).
The experiment was performed in triple biological replicates.

S. pyogenes strains = test: Minimum Inhibitory Concentration (MIC) assay, Example 1, S. pyogenes strains; format: cell-based, Streptococcus pyogenes
Procedure: (§1) Strains were conserved in Luria Bertani (LB) Broth (S. aureus) or Brain Heart Infusion (BHI) (S. pyogenes) supplemented with glycerol 15% (v/v) at −80° C., and reactivated by isolation on LB (S. aureus) or BHI (S. pyogenes) agar plates. Strains were cultivated in Mueller Hinton (MH) Broth-cation adjusted (S. aureus) supplemented with lysed horse blood 2.5% (v/v) (S. pyogenes). All strains were cultivated at 37° C., aerobically for S. aureus strains.
(§2) Bacterial cultures were stopped in their exponential growth phase and plates were inoculated with the approximate concentration of 10^3 cells per well. Plates were incubated at 37° C. for 18 hours (S. aureus) or 24 hours (S. pyogenes). Optical density at a wavelength of 600 nm was measured at the end of the incubation time. […] Experiments were performed at least as triplicate biological replicates with all strains.

[2] = cats, p.o.; cited from earlier work
MRSA 01 [3] = test: Time-kill assay; format: cell-based, Staphylococcus aureus; settings: niclosamide 4 μg/ml (MIC×10), initial inoculum 7 log10 cfu/ml
Procedure: Assay was performed in 20 ml of medium. It included a negative control (medium without bacteria), a positive control (bacteria grown without niclosamide) and the assay (bacteria grown with niclosamide). […] This experiment was performed with the primary test microorganism indicated above.
The overnight culture was stopped and OD600 was measured. Culture was then diluted in indicated medium to obtain an OD600 of 0.25 in order to have about 5×10^8 cfu/ml. Two hundred μl of this diluted culture were then added in all conditions except in the negative control. Initial bacterial concentration was about 5×10^6 cfu/ml. Tubes were incubated aerobically at 37° C. for 24 hours.
Bacteria were enumerated before the incubation, after 30 minutes, 1, 2, 4, 8 and 24 hours of incubation by serial dilutions in NaCl 0.9% and plating on LB agar, with 2 plates per dilution. Plates were incubated at 37° C. and colonies enumerated after 24 hours.

[4] = cited from earlier work
MRSA 01 [5] = test: Colony-forming unit (CFU) in skin lesions of mice challenged with MRSA 01; format: in vivo, Staphylococcus aureus; settings: female Balb/c mice, MRSA 01 skin lesion, topical twice daily for three days, Experiment 1
Procedure: Three animal studies were performed with niclosamide and fusidic acid as comparison with different formulations and doses.
In each experiment, female Balb/c mice received a skin lesion approximately 1 cm^2 and were challenged with 1.5×10^8 cfu MRSA 01 topically. Twenty-four hours after the wound formation and the contamination, mice were treated topically with 0.05 ml twice daily for three days. Mice were sacrificed on day 4, skin lesions were excised and cfu quantitated. Fusidin ointment (2% from Leo Pharma) was included as control.

P. aeruginosa = settings: cited from earlier work
S. aureus strains = test: Minimum Inhibitory Concentration (MIC) assay, Example 1, S. aureus strains; format: cell-based; settings: Staphylococcus aureus
Procedure: as §1, §2

[6] = tested on: quorum sensing response in P. aeruginosa; settings: reduction of quorum sensing response in P. aeruginosa; cited from earlier work
[7] = tested on: Streptococcus pyogenes strains; test: MIC assay, Example 2, S. pyogenes strains (in BHI); format: cell-based
Procedure: Strains were conserved in Luria Bertani (LB) Broth (S. aureus) or Brain Heart Infusion (BHI) (S. pyogenes) supplemented with glycerol 15% (v/v) at −80° C., and reactivated by isolation on LB (S. aureus) or BHI (S. pyogenes) agar plates. Strains were cultivated in Mueller Hinton (MH) Broth-cation adjusted (S. aureus) or BHI (S. pyogenes). All strains were cultivated aerobically (microaerobically for S. pyogenes strains) at 37° C. […] Bacterial cultures were stopped in their exponential growth phase and plates were inoculated with the approximate concentration of 5×10^5 cells per well.

[8] = S. pyogenes strains with MIC 0.0625 μg/ml
[9] = S. pyogenes strains with MIC 0.5 μg/ml
[10] = S. pyogenes strains with MIC […]

Structure (SMILES): O=C(Nc1ccc([N+](=O)[O-])cc1Cl)c1cc(Cl)ccc1O [Niclosamide, 5-chloro-N-(2-chloro-4-nitrophenyl)-2-hydroxybenz-amide]
- inhibitory activity against MRSA 01 as a function of pH (MRSA 01 [1]; MRSA 01, pH 7.4 to 5.5): increased when pH was decreased
- pH at which the maximal inhibitory effect was observed (MRSA 01 [1]; MRSA 01, pH-adjusted Mueller-Hinton Broth): 5.5
- MIC (MRSA 01 [1]; MRSA 01, pH 5.5 (actual pH 5.530), Replicate 3): ≤ 0.008 µg/mL
- MIC (MRSA 01 [1]; MRSA 01, pH 5.5 (actual pH 5.547), Replicate 2): ≤ 0.008 µg/mL
- MIC (MRSA 01 [1]; MRSA 01, pH 5.5 (actual pH 5.569), Replicate 1): ≤ 0.03 µg/mL
- MIC (MRSA 01 [1]; MRSA 01, pH 6.0 (actual pH 5.893), Replicate 1): 0.06 µg/mL (≈ 0.183 µM)
- MIC (MRSA 01 [1]; MRSA 01, pH 6.0 (actual pH 5.955), Replicate 2): 0.06 µg/mL (≈ 0.183 µM)
- MIC (MRSA 01 [1]; MRSA 01, pH 6.0 (actual pH 5.980), Replicate 3): 0.016 µg/mL (≈ 0.0489 µM)
- MIC (MRSA 01 [1]; MRSA 01, pH 6.5 (actual pH 6.512), Replicate 1): 0.125 µg/mL (≈ 0.382 µM)
- MIC (MRSA 01 [1]; MRSA 01, pH 6.5 (actual pH 6.540), Replicate 3): 0.03 µg/mL (≈ 0.0917 µM)
- MIC (MRSA 01 [1]; MRSA 01, pH 6.5 (actual pH 6.566), Replicate 2): 0.06 µg/mL (≈ 0.183 µM)
- MIC (MRSA 01 [1]; MRSA 01, pH 7.0 (actual pH 6.921), Replicate 1): 0.25 µg/mL (≈ 0.764 µM)
- MIC (MRSA 01 [1]; MRSA 01, pH 7.0 (actual pH 7.025), Replicate 3): 0.125 µg/mL (≈ 0.382 µM)
- MIC (MRSA 01 [1]; MRSA 01, pH 7.0 (actual pH 7.071), Replicate 2): 0.125 µg/mL (≈ 0.382 µM)
- MIC (MRSA 01 [1]; pH 7.4, MRSA 01, pH not adjusted (actual pH 7.4), Replicate 1): 0.5 µg/mL (≈ 1.53 µM)
- MIC (MRSA 01 [1]; pH 7.4, MRSA 01, pH not adjusted (actual pH 7.4), Replicate 2): 0.25 µg/mL (≈ 0.764 µM)
- MIC (MRSA 01 [1]; pH 7.4, MRSA 01, pH not adjusted (actual pH 7.4), Replicate 3): 0.5 µg/mL (≈ 1.53 µM)
- MIC (S. pyogenes strains; Streptococcus pyogenes, S. pyogenes strains, read-out: Mic100 S. pyogenes): ≤ 3 µg/mL and ≤ 3 µM
- MIC (S. pyogenes strains; against Streptococcus pyogenes strains (FIG. 1), read-out: MIC): ≤ 3.2 µg/mL
- LD50 [2]: > 1000 mg/kg
- bactericidal or bacteriostatic effect (time-kill curve) (MRSA 01 [3]): bacteriostatic effect
- LD50 mice p.o ([4]; Table 3): >1500 mg/kg
- LD50 ([4]; mice, p.o.): > 5000 mg/kg
- bacterial reduction (CFU in skin lesions) compared to control vehicles (MRSA 01 [5]): significant bacterial reductions
- effect on growth of P. aeruginosa (P. aeruginosa): does not affect the growth
- MIC (S. aureus strains; S. aureus strains, read-out: Mic100 S. aureus): ≤ 0.4 µg/mL and ≤ 1.25 µM
- MIC (S. aureus strains; against S. aureus strains, including strains resistant to fusidic acid and to mupirocin (FIG. 1), read-out: MIC): ≤ 0.4 µg/mL
- concentration at which some inhibition was detected [6]: 1 µM
- concentration required for optimal activity [6]: 20 µM
- MIC distribution (percentage of strains) [7, 8]: 25%
- MIC distribution (ratio of strains) [7, 8]: (1/4)
- MIC distribution (percentage of strains) [7, 9]: 25%
- MIC distribution (ratio of strains) [7, 9]: (1/4)
- MIC distribution (percentage of strains) [7, 10]: 25%
- MIC distribution (ratio of strains) [7, 10]: (1/4)
- MIC ([7]; Streptococcus pyogenes, all targeted S. pyogenes strains): ≤ 0.5 µg/mL
